# Measurements reported in ChEMBL document CHEMBL4020771, “Activity of resveratrol triesters against primary acute lymphoblastic leukemia cells” (Bioorg Med Chem Lett, 2017).
# The source made the active and inactive calls. The rule behind the calls is not given here.
# Tests used:
# [1] = Cytotoxicity against human ALL5 cells after 120 hrs by MTT method; assay type: functional, cell-based; settings: ALL5, 120 h
# [2] = Cell cycle arrest in human ALL5 cells assessed as accumulation at S phase at 17 uM after 96 hrs in presence of CDK4/6 inhibitor palbociclib by propidium iodide staining based flow cytometric analysis (reference value: 0.07%); assay type: functional
# [3] = Cell cycle arrest in human ALL5 cells assessed as accumulation at S phase at 17 uM after 48 hrs by propidium iodide staining based flow cytometric analysis (reference value: 11.7 %); assay type: functional
# [4] = tested on: ALL5; assay: Increase in p53 expression in human ALL5 cells at 17 uM after 96 hrs by Western blot analysis; assay type: functional, cell-based
# [5] = Cell cycle arrest in human ALL5 cells assessed as accumulation at G2 phase at 17 uM after 48 hrs by propidium iodide staining based flow cytometric analysis (reference value: 13.6 %); assay type: functional
# [6] = Cell cycle arrest in human ALL5 cells assessed as accumulation at S phase at 17 uM after 120 hrs by propidium iodide staining based flow cytometric analysis (reference value: 11.7 %); assay type: functional
# [7] = Cell cycle arrest in human ALL5 cells assessed as accumulation at S phase at 17 uM after 96 hrs by propidium iodide staining based flow cytometric analysis (reference value: 11.7 %); assay type: functional
# [8] = Cell cycle arrest in human ALL5 cells assessed as accumulation at G1 phase at 17 uM after 96 hrs by propidium iodide staining based flow cytometric analysis (reference value: 70.5 %); assay type: functional
# [9] = Cell cycle arrest in human ALL5 cells assessed as accumulation at G1 phase at 17 uM after 48 hrs by propidium iodide staining based flow cytometric analysis (reference value: 70.5 %); assay type: functional
# [10] = Cell cycle arrest in human ALL5 cells assessed as accumulation at G2 phase at 17 uM after 96 hrs by propidium iodide staining based flow cytometric analysis (reference value: 13.6 %); assay type: functional
# [11] = Cell cycle arrest in human ALL5 cells assessed as accumulation at G1 phase at 17 uM after 96 hrs in presence of CDK4/6 inhibitor palbociclib by propidium iodide staining based flow cytometric analysis (reference value: 97.8%); assay type: functional
# [12] = Cell cycle arrest in human ALL5 cells assessed as accumulation at subG1 phase at 17 uM after 96 hrs in presence of CDK4/6 inhibitor palbociclib by propidium iodide staining based flow cytometric analysis (reference value: 1.47%); assay type: functional
# [13] = Cell cycle arrest in human ALL5 cells assessed as accumulation at subG1 phase at 17 uM after 120 hrs by propidium iodide staining based flow cytometric analysis (reference value: 3.44 %); assay type: functional
# [14] = tested on: HeLa; assay: Cytotoxicity against human HeLa cells up to 10 uM after 72 hrs by MTT method; assay type: functional, cell-based
# [15] = Cell cycle arrest in human ALL5 cells assessed as accumulation at G1 phase at 17 uM after 120 hrs by propidium iodide staining based flow cytometric analysis (reference value: 70.5 %); assay type: functional
# [16] = Cell cycle arrest in human ALL5 cells assessed as accumulation at G2 phase at 17 uM after 96 hrs in presence of CDK4/6 inhibitor palbociclib by propidium iodide staining based flow cytometric analysis (reference value: 0.64%); assay type: functional
# [17] = Cell cycle arrest in human ALL5 cells assessed as accumulation at subG1 phase at 17 uM after 48 hrs by propidium iodide staining based flow cytometric analysis (reference value: 3.44 %); assay type: functional
# [18] = Cell cycle arrest in human ALL5 cells assessed as accumulation at subG1 phase at 17 uM after 96 hrs by propidium iodide staining based flow cytometric analysis (reference value: 3.44 %); assay type: functional
# [19] = Cell cycle arrest in human ALL5 cells assessed as accumulation at G2 phase at 17 uM after 120 hrs by propidium iodide staining based flow cytometric analysis (reference value: 13.6 %); assay type: functional
# [20] = Cell cycle arrest in human ALL5 cells assessed as accumulation at S phase at 25 uM after 48 hrs by propidium iodide staining based flow cytometric analysis (reference value: 11.7 %); assay type: functional
# [21] = Cell cycle arrest in human ALL5 cells assessed as accumulation at S phase at 25 uM after 120 hrs by propidium iodide staining based flow cytometric analysis (reference value: 11.7 %); assay type: functional
# [22] = Cell cycle arrest in human ALL5 cells assessed as accumulation at S phase at 25 uM after 96 hrs in presence of CDK4/6 inhibitor palbociclib by propidium iodide staining based flow cytometric analysis (reference value: 0.07%); assay type: functional
# [23] = Cell cycle arrest in human ALL5 cells assessed as accumulation at G2 phase at 25 uM after 48 hrs by propidium iodide staining based flow cytometric analysis (reference value: 13.6 %); assay type: functional
# [24] = Cell cycle arrest in human ALL5 cells assessed as accumulation at G1 phase at 25 uM after 96 hrs by propidium iodide staining based flow cytometric analysis (reference value: 70.5 %); assay type: functional
# [25] = Cell cycle arrest in human ALL5 cells assessed as accumulation at G2 phase at 25 uM after 96 hrs in presence of CDK4/6 inhibitor palbociclib by propidium iodide staining based flow cytometric analysis (reference value: 0.64%); assay type: functional
# [26] = Cell cycle arrest in human ALL5 cells assessed as accumulation at G1 phase at 25 uM after 120 hrs by propidium iodide staining based flow cytometric analysis (reference value: 70.5 %); assay type: functional
# [27] = Cell cycle arrest in human ALL5 cells assessed as accumulation at G2 phase at 25 uM after 96 hrs by propidium iodide staining based flow cytometric analysis (reference value: 13.6 %); assay type: functional
# [28] = tested on: ALL5; assay: Increase in p53 expression in human ALL5 cells at 25 uM after 96 hrs by Western blot analysis; assay type: functional, cell-based
# [29] = Cell cycle arrest in human ALL5 cells assessed as accumulation at subG1 phase at 25 uM after 96 hrs by propidium iodide staining based flow cytometric analysis (reference value: 3.44 %); assay type: functional
# [30] = Cell cycle arrest in human ALL5 cells assessed as accumulation at subG1 phase at 25 uM after 48 hrs by propidium iodide staining based flow cytometric analysis (reference value: 3.44 %); assay type: functional
# [31] = Cell cycle arrest in human ALL5 cells assessed as accumulation at G1 phase at 25 uM after 96 hrs in presence of CDK4/6 inhibitor palbociclib by propidium iodide staining based flow cytometric analysis (reference value: 97.8%); assay type: functional
# [32] = Cell cycle arrest in human ALL5 cells assessed as accumulation at subG1 phase at 25 uM after 96 hrs in presence of CDK4/6 inhibitor palbociclib by propidium iodide staining based flow cytometric analysis (reference value: 1.47%); assay type: functional
# [33] = Cell cycle arrest in human ALL5 cells assessed as accumulation at S phase at 25 uM after 96 hrs by propidium iodide staining based flow cytometric analysis (reference value: 11.7 %); assay type: functional
# [34] = Cell cycle arrest in human ALL5 cells assessed as accumulation at subG1 phase at 25 uM after 120 hrs by propidium iodide staining based flow cytometric analysis (reference value: 3.44 %); assay type: functional
# [35] = Cell cycle arrest in human ALL5 cells assessed as accumulation at G2 phase at 25 uM after 120 hrs by propidium iodide staining based flow cytometric analysis (reference value: 13.6 %); assay type: functional
# [36] = Cell cycle arrest in human ALL5 cells assessed as accumulation at G1 phase at 25 uM after 48 hrs by propidium iodide staining based flow cytometric analysis (reference value: 70.5 %); assay type: functional
# [37] = Cell cycle arrest in human ALL5 cells assessed as accumulation at S phase at 1 uM after 72 hrs by propidium iodide staining based flow cytometric analysis (reference value: 15.2%); assay type: functional
# [38] = Cell cycle arrest in human ALL5 cells assessed as accumulation at subG1 phase at 1 uM after 72 hrs by propidium iodide staining based flow cytometric analysis (reference value: 0.54 %); assay type: functional
# [39] = Cell cycle arrest in human ALL5 cells assessed as accumulation at G1 phase at 1 uM after 72 hrs by propidium iodide staining based flow cytometric analysis (reference value: 64.4%); assay type: functional
# [40] = Cell cycle arrest in human ALL5 cells assessed as accumulation at G2 phase at 1 uM after 72 hrs by propidium iodide staining based flow cytometric analysis (reference value: 19.1%); assay type: functional
smiles,measurement,setting,value
Oc1ccc(/C=C/c2cc(O)cc(O)c2)cc1 [RESVERATROL],IC50,[1],10.5 µM
CCCCCCCCCC(=O)Oc1ccc(/C=C/c2cc(OC(=O)CCCCCCCCC)cc(OC(=O)CCCCCCCCC)c2)cc1,IC50,[1],> 10 µM
O=C(Oc1ccc(/C=C/c2cc(OC(=O)c3ccccc3)cc(OC(=O)c3ccccc3)c2)cc1)c1ccccc1,IC50,[1],> 10 µM
O=C(/C=C/c1cccc(O)c1)Oc1ccc(/C=C/c2cc(OC(=O)/C=C/c3cccc(O)c3)cc(OC(=O)/C=C/c3cccc(O)c3)c2)cc1,IC50,[1],10 µM
CC(=O)Oc1ccc(/C=C/c2cc(OC(C)=O)cc(OC(C)=O)c2)cc1 [TRIACETYLRESVERATROL],Activity,[2],0.06%
same,Activity,[3],20.8%
same,Activity,[4],Active
same,Activity,[5],3.23%
same,Activity,[6],12.5%
same,Activity,[7],16%
same,Activity,[8],15.5%
same,Activity,[9],62.5%
same,Activity,[10],13.1%
same,Activity,[11],98.1%
same,Activity,[12],1.33%
same,Activity,[13],60.9%
same,Activity,[14],inactive
same,Activity,[15],18.5%
same,Activity,[16],0.54%
same,Activity,[17],12.3%
same,Activity,[18],54.6%
same,Activity,[19],7.59%
same,IC50,[1],3.4 µM
COc1cc(/C=C/C(=O)Oc2ccc(/C=C/c3cc(OC(=O)/C=C/c4ccc(O)c(OC)c4)cc(OC(=O)/C=C/c4ccc(O)c(OC)c4)c3)cc2)ccc1O,IC50,[1],10 µM
COc1cc(C(=O)Oc2ccc(/C=C/c3cc(OC(=O)c4cc(OC)c(OC)c(OC)c4)cc(OC(=O)c4cc(OC)c(OC)c(OC)c4)c3)cc2)cc(OC)c1OC,IC50,[1],> 10 µM
O=C(/C=C/c1ccc(O)cc1)Oc1ccc(/C=C/c2cc(OC(=O)/C=C/c3ccc(O)cc3)cc(OC(=O)/C=C/c3ccc(O)cc3)c2)cc1,IC50,[1],> 10 µM
O=C(/C=C/c1ccccc1)Oc1ccc(/C=C/c2cc(OC(=O)/C=C/c3ccccc3)cc(OC(=O)/C=C/c3ccccc3)c2)cc1,IC50,[1],> 10 µM
COc1cc(/C=C/C(=O)Oc2ccc(/C=C/c3cc(OC(=O)/C=C/c4cc(OC)c(O)c(OC)c4)cc(OC(=O)/C=C/c4cc(OC)c(O)c(OC)c4)c3)cc2)cc(OC)c1O,IC50,[1],> 10 µM
O=C(CCl)Oc1ccc(/C=C/c2cc(OC(=O)CCl)cc(OC(=O)CCl)c2)cc1,IC50,[1],10 to 10.5 µM
CC(C)C(=O)Oc1ccc(/C=C/c2cc(OC(=O)C(C)C)cc(OC(=O)C(C)C)c2)cc1,Activity,[20],2.14%
same,Activity,[21],9.11%
same,Activity,[22],0.21%
same,Activity,[23],2.02%
same,Activity,[24],44.8%
same,Activity,[25],0.45%
same,Activity,[26],26.1%
same,Activity,[14],inactive
same,Activity,[27],0.34%
same,Activity,[28],Active
same,Activity,[29],48.1%
same,Activity,[30],23.1%
same,Activity,[31],93.6%
same,Activity,[32],5.76%
same,Activity,[33],6.34%
same,Activity,[34],63.7%
same,Activity,[35],0.49%
same,IC50,[1],5.1 µM
same,Activity,[36],72.5%
O=C(Oc1ccc(/C=C/c2cc(OC(=O)c3c(Cl)cccc3Cl)cc(OC(=O)c3c(Cl)cccc3Cl)c2)cc1)c1c(Cl)cccc1Cl,IC50,[1],> 10 µM
COc1cccc(C(=O)Oc2ccc(/C=C/c3cc(OC(=O)c4cccc(OC)c4OC)cc(OC(=O)c4cccc(OC)c4OC)c3)cc2)c1OC,IC50,[1],> 10 µM
CC(C)CC(=O)Oc1ccc(/C=C/c2cc(OC(=O)CC(C)C)cc(OC(=O)CC(C)C)c2)cc1,Activity,[20],9.6%
same,Activity,[21],4.32%
same,Activity,[22],0.28%
same,Activity,[23],6.99%
same,Activity,[24],32.5%
same,Activity,[25],0.46%
same,Activity,[26],24.5%
same,Activity,[14],inactive
same,Activity,[27],2.2%
same,Activity,[28],Active
same,Activity,[29],59.4%
same,Activity,[30],16.4%
same,Activity,[31],91.6%
same,Activity,[32],7.6%
same,Activity,[33],5.14%
same,Activity,[34],69.9%
same,Activity,[35],0.86%
same,IC50,[1],4.9 µM
same,Activity,[36],66.4%
COc1ccc(/C=C/C(=O)Oc2ccc(/C=C/c3cc(OC(=O)/C=C/c4ccc(OC)c(OC)c4)cc(OC(=O)/C=C/c4ccc(OC)c(OC)c4)c3)cc2)cc1OC,IC50,[1],> 10 µM
CC(=O)c1c(C)c2cnc(Nc3ccc(N4CCNCC4)cn3)nc2n(C2CCCC2)c1=O [PALBOCICLIB],Activity,[37],0.29%
same,Activity,[38],0.76%
same,Activity,[39],98.1%
same,Activity,[40],0.8%
